Measurements from patent US20230127442A1, “COMPOSITIONS FOR INCREASING ETHANOL PRODUCTION AND RELATED METHODS” (KEMIN INDUSTRIES, INC., priority 2021, published 2023).

Legend:
[1] = system: yeast; assay: Corn mash fermentation with synthetic antioxidants, 24 hours at 33° C. then heat stress at 37° C. to 72 hours, ethanol by HPLC (Example 6); format: cell-based; settings: for increase in ethanol content at 24 hour compared to control: before heat stress
From the text: (§1) Lutein (FloraGLO®): Lutein crystals were purified from marigolds and suspended in oil. Acerola extract (Fortium® A): Acerola fruit grown from Malpighia emarginata, water extract. Spearmint Extract (Neumentix®): Spearmint leaves grown from Mentha spicata L. (Kemin Industries, Inc. proprietary lines KI-MsEM0042, KI-MsEM0110), water extract. Aqueous Tea Extract (AssuriTEA® Green): Tea leaves grown from Camellia sinensis, water extract. Solvent Extracted Tea (Fortium® GT107): Tea leaves grown from Camellia sinensis and extracted with acetone and ethyl acetate, solvent extract. Rosemary Extract (Fortium® M): Rosemary leaves grown from Rosmarinus officinalis extracted with either acetone and TFE or ethanol. Mixed Tocopherols (Fortium® MT): Mixed tocopherols are extracted from vegetable oils with hexane, ethanol, and methanol. Lipid-Soluble Green Tea (GT-FORT): Tea leaves grown from Camellia sinensis and extracted with ethyl acetate, dichloromethane, and ethanol. Synthetic antioxidants: TBHQ (tert-butylhydroquinone) and BHT (butylated hydroxytoluene); tert-butlyhydroquinone was solubilized in propylene glycol and butylated hydroxytoluene was solubilized in ethanol. In alternative embodiments, the synthetic antioxidants are suspended in liquid or solubilized in liquid, including but not limited to water and organic solvents or combinations thereof.
Dry yeast was added to corn mash containing urea, protease, phytase, and glucoamylase. tert-Butylhydroquinone (0.0001, 0.001, or 0.01 mg/L) and butylated hydroxytoluene (0.0001, 0.001, or 0.01 mg/L were added to the corn mash. Corn mash containing no antioxidants was included in the experiment as a Control. The corn mash was fermented in a temperature-controlled incubator shaker for 24 hours at 33° C. Following 24 hours, the yeast in the corn mash were subjected to heat stress by increasing the temperature to 37° C. and the corn mash fermented for another 48 hours for a total fermentation time of 72 hours. Ethanol levels were measured by HPLC.

[2] = system: yeast; assay: Corn mash fermentation, 48 hours, heat stress at 38° C. after 24 hours, ethanol by HPLC (Example 1); format: cell-based; settings: 48 hours total, heat stress 38° C. for last 24 hours
From the text: as §1
Dry yeast was added to corn mash containing urea, protease, phytase, and glucoamylase. Lutein, a fat-soluble antioxidant, was added to the mash at 200, 1,000, or 2,000 mg/L. Dried aqueous tea extract or spearmint extract containing antioxidants were added to the corn mash at 100, 1,000, or 5,000 mg/L. Corn mash containing no added antioxidants was included in the experiment as a control group (Control). The corn mash was fermented in a temperature-controlled incubator shaker for 24 hours at 33° C. Following 24 hours, the yeast in the corn mash were subjected to heat stress by increasing the temperature to 38° C. and the corn mash fermented for another 24 hours for a total fermentation time of 48 hours. Ethanol levels were measured by HPLC.

SMILES: Cc1cc(C(C)(C)C)c(O)c(C(C)(C)C)c1 [butylated hydroxytoluene]
- change of ethanol content of corn mash through 72 hours compared to control ([1]; 72 hours, following heat stress 37° C., 0.0001, 0.001 or 0.01 mg/L): slightly decreased

SMILES: CC(C)(C)c1cc(O)ccc1O [tert-Butylhydroquinone, tert-butylhydroquinone]
- increase in ethanol content at 24 hour compared to control ([1]; 0.0001 mg/L, first 24 hours at 33° C.): up to 0.4%
- increase in ethanol content at 24 hour compared to control ([1]; 0.01 mg/L, first 24 hours at 33° C.): up to 1.8%
- increase in ethanol content at 72 hour compared to control ([1]; 72 hours, following heat stress 37° C., highest increase among 0.0001, 0.001 or 0.01 mg/L): ≤ 2.8%
- change of ethanol content of corn mash over the first 24 hours compared to control ([1]; first 24 hours at 33° C., FIG. 17, 0.0001, 0.001 or 0.01 mg/L): decreased

SMILES: CC1=C[C@H](O)CC(C)(C)[C@H]1/C=C/C(C)=C/C=C/C(C)=C/C=C/C=C(C)/C=C/C=C(C)/C=C/C1=C(C)C[C@@H](O)CC1(C)C [lutein, Lutein]
- increase in ethanol content of corn mash compared to Control ([2]; 200 mg/L): 4%
- increase in ethanol content of corn mash compared to Control ([2]; 1,000 mg/L): 7%
- increase in ethanol content of corn mash compared to Control ([2]; 2,000 mg/L): 10%
